What was measured:
Type in all cases: cell-based
HIV-1 = test: Anti-HIV activity: inhibition of HIV-1 replication in infected established cell lines; conditions: laboratory strains of HIV-1, established cell lines, 4 to 6 days post-infection
Protocol: (§1) Laboratory strains of HIV-1, were used to infect established cell lines by using a specific multiplicity of infection (MOI) of the virus for 1 hour at 37° C. prior to washing the cells and re-suspension in medium containing increasing concentrations of drug (or test compound). At 4 to 6 days post-infection, drug-treated and control wells are analyzed for an HIV-1 induced cytopathic effect and/or for the presence of viral reverse transcriptase (RT) or viral p24 antigen in the culture medium (Buckheit and Swanstrom (1991) AIDS Res. Human Retroviruses 7:295-302; Ojwang, et al (1994) J. Acquired Immune Deficiency Syndrome 7:560-570; Ojwang, J. O., et al (1995) Antimicrobial Agents and Chemotherapy. 39:2426-2435 and Rando et al (1995) J. Biol. Chem. 270:1754-1760).

HBV = test: Anti-HBV activity: inhibition of HBV replication in 2.2.15 cells; conditions: twelve days postadministration
Protocol: (§2) The 2.2.15 cell line derived from HepG2 cells transfected with episomal HBV DNA (Sells et al (1987) Proc. Natl. Acad. Sci. USA 84:1005-1009 and (1988) J. Virol. 62:2836-2844) was used. The assay was performed basically as described by Ojwang et al. (1995) Antimicrobial Agents and Chemotherapy 39:2570-2573 ). The 2.2.15 cells are seeded (10^5 cells per well) in 300 ul of minimal essential medium supplemented with 10% fetal bovine serum, using 24-well plates pre-coated with 150 ul of 0.1 mg of collagen (rat tail) type I per ml reconstituted in 0.02 M acetic acid. The collagen treatment helped the cells 10 disperse evenly over the culture plate. Once the cells reach confluency (approximately 1 day), the culture medium is replaced every 2 days with medium containing various concentrations of the indicated test compound. In this experiment, the nucleosides 2′,3′-dideoxy-3′-thiacytidine (3TC) or 2′,3′-dideoxycytidine (ddC) are used as positive controls (Ojwang et al. (1995)). Twelve days postadministration of the test compounds, cells are harvested and DNA is prepared as described by Fennewald et al. ( (1995) Antiviral Res. 26:37-54.). At the same time, the culture medium is saved and analyzed for the presence of extracellular viral nucleic acids.
The integrated and episomal HBV DNAs are easily separated by using agarose gel electrophoresis which allows for the differential quantification of the two species of HBV DNA. […] As a molecular probe, a subgenomic fragment of the HBV DNA is cloned into the pCRII TA cloning vector (Invitrogen) plasmid between the two EcoR1 sites. The subgenomic HBV DNA fragment is obtained by using the PCR technique to amplify a portion of the HBV genome (nucleotide positions 2134 to 143). Total DNA isolated from 2.2.15 cells is used as the PCR template with primer sets corresponding to nucleotide positions 2134 to 2151 (forward) and 143 to 126 (reverse). […] In addition, the filters are also exposed to a photoimaging plate and quantitated, using a Fujix Bioimaging Analyzer System BAS 1000 (or similar) instrument.

established cell lines = test: Cytotoxicity (CCTD50) reported with the anti-HIV-1 assay; conditions: cytotoxicity Table 1 (HIV-1 assay)
Protocol: as §1

[1] = tested on: 2.2.15 cell line derived from HepG2 cells; test: Cytotoxicity (CC50) reported with the anti-HBV assay; conditions: cytotoxicity of Table 2 (HBV assay, 2.2.15 cells)
Protocol: as §2

[2] = as above; conditions: human; cytotoxicity of Table 2 (HBV assay, 2.2.15 cells)
Protocol: as §2

Row | Compound | EC50 (μg/ml), inhibition of HIV-1 replication (HIV-1) [µg/mL] | EC50 (μg/ml), inhibition of HBV replication (HBV) [µg/mL] | CCTD50 (established cell lines) [µg/mL] | CC50 [1] [µg/mL] | EC50 (HIV-1; Human immunodeficiency virus 1, read-out: EC50 (μg/ml), inhibition of HIV-1 replication) [µg/mL] | EC50 (HBV; Hepatitis B virus, read-out: EC50 (μg/ml), inhibition of HBV replication) [µg/mL] | CC50 [2] [µg/mL]
1 | Nc1nc2c(nc(Cl)n2CC2CCC(P(=O)(Oc3ccccc3)Oc3ccccc3)O2)c(=O)[nH]1 (stereo not drawn) [Example 16, [5-(2-Amino-8-chloro-6-oxo-1,6-dihydro-purin-9-ylmethyl)-tetrahydro-furan-2-yl]-phosphonic Acid Diphenyl Ester] | 0.46 | 11 | >10 | >300 | – | – | –
2 | Nc1nc(O)c2ncn(C[C@H]3O[C@@H](P(=O)(O)O)C[C@@H]3F)c2n1 [Compound 23] | – | – | >10 | – | > 10 | > 30 | > 300
3 | Ammonium; 5-(2-Amino-6-oxo-1,6-dihydro-purin-9-ylmethyl)-3,4-dihydroxy-tetrahydro-furan-2-phosphonate [Example 10] | 5 | 0.295 | >10 | >300 | – | – | –
